# Test results reported in patent US12655116B2, “Substituted isophthalic acid diamides” (Bayer Aktiengesellschaft, priority 2020, dated 2026).
# Legend:
# ABUTH [1] = experiment: Pre-emergence herbicidal action against ABUTH; assay type: in vivo, Abutilon theophrasti
# Method in brief: (§1)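 Pre-emergence soil-surface spray of formulated compound (WP or EC; 600 to 800 l/ha; 0.2% wetting agent) over seeds sown in sandy loam. After 3 weeks under greenhouse conditions, damage is estimated visually in percent against untreated plants.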
# AMARE [2] = experiment: Pre-emergence herbicidal action against AMARE; assay type: in vivo, Amaranthus retroflexus
# Method in brief: as §1
# AVEFA [3] = experiment: Pre-emergence herbicidal action against AVEFA; assay type: in vivo, Avena fatua
# Method in brief: as §1
# ECHCG [4] = experiment: Pre-emergence herbicidal action against ECHCG; assay type: in vivo, Echinochloa crus-galli
# Method in brief: as §1
# MATIN [5] = experiment: Pre-emergence herbicidal action against MATIN; assay type: in vivo, Matricaria inodora
# Method in brief: as §1
# SETVI [6] = experiment: Pre-emergence herbicidal action against SETVI; assay type: in vivo, Setaria viridis; conditions: dosage 80 g/ha
# Method in brief: as §1
# VERPE [7] = experiment: Pre-emergence herbicidal action against VERPE; assay type: in vivo, Veronica persica; conditions: dosage 80 g/ha
# Method in brief: as §1
# VIOTR [8] = experiment: Pre-emergence herbicidal action against VIOTR; assay type: in vivo, Viola tricolor
# Method in brief: as §1
# ABUTH [9] = experiment: Post-emergence herbicidal action against ABUTH; assay type: in vivo, Abutilon theophrasti; conditions: dosage 20 g/ha, visual assessment about 3 weeks after treatment vs untreated controls
# Method in brief: (§2)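 Greenhouse plants in sandy loam were sprayed at the one-leaf stage, 2 to 3 weeks after sowing, with WP or EC formulations as aqueous suspension or emulsion (600 to 800 l/ha water, 0.2% wetting agent). Visual damage was scored about 3 weeks later versus untreated controls, 0% = like control, 100% = dead.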
# AMARE [10] = experiment: Post-emergence herbicidal action against AMARE; assay type: in vivo, Amaranthus retroflexus; conditions: 20 g/ha, visual assessment about 3 weeks after treatment, 100% = plants have died, 0% = like control plants
# Method in brief: as §2
# AVEFA [11] = experiment: Post-emergence herbicidal action against AVEFA; assay type: in vivo, Avena fatua; conditions: 20 g/ha, visual assessment about 3 weeks after treatment, 100% = plants have died, 0% = like control plants
# Protocol: Seeds of monocotyledonous and dicotyledonous weed and crop plants are laid out in sandy loam soil in wood-fiber pots, covered with soil and cultivated in a greenhouse under good growth conditions. 2 to 3 weeks after sowing, the test plants are treated at the one-leaf stage. The compounds of the invention, formulated in the form of wettable powders (WP) or as emulsion concentrates (EC), are then sprayed onto the green parts of the plants in the form of an aqueous suspension or emulsion at a water application rate equivalent to 600 to 800 l/ha, with addition of 0.2% wetting agent. After the test plants have been left to stand in the greenhouse under optimal growth conditions for about 3 weeks, the action of the preparations is assessed visually in comparison to untreated controls (herbicidal action in percent (%): 100% activity=the plants have died, 0% activity=like control plants). […] The tables below illustrate, in an illustrative manner, the post-emergence herbicidal action of the compounds of the invention, the herbicidal activity being stated in percent.
# ECHCG [12] = experiment: Post-emergence herbicidal action against ECHCG; assay type: in vivo, Echinochloa crus-galli; conditions: dosage 20 g/ha
# Method in brief: as §2
# MATIN [13] = experiment: Post-emergence herbicidal action against MATIN; assay type: in vivo, Matricaria inodora; conditions: dosage 20 g/ha
# Method in brief: as §2
# VIOTR [14] = experiment: Post-emergence herbicidal action against VIOTR; assay type: in vivo, Viola tricolor
# Method in brief: as §2
# POLCO = experiment: Pre-emergence herbicidal action against POLCO; assay type: in vivo, Polygonum convolvulus; conditions: dosage 80 g/ha
# Method in brief: as §1
# STEME = experiment: Pre-emergence herbicidal action against STEME; assay type: in vivo, Stellaria media; conditions: dosage 80 g/ha
# Text: Seeds of monocotyledonous and dicotyledonous weed plants and crop plants are laid out in sandy loam soil in wood-fiber pots and covered with soil. The compounds of the invention, formulated in the form of wettable powders (WP) or as emulsion concentrates (EC), are then applied to the surface of the covering soil in the form of an aqueous suspension or emulsion at a water application rate equivalent to 600 to 800 l/ha, with addition of 0.2% wetting agent. After the treatment, the pots are placed in a greenhouse and kept under good growth conditions for the trial plants. The damage to the test plants is scored visually after a test period of 3 weeks by comparison with untreated controls (herbicidal activity in percent (%): 100% activity=the plants have died, 0% activity=like control plants). […] The tables below illustrate, in an illustrative manner, the post-emergence herbicidal action of the compounds of the invention, the herbicidal activity being stated in percent.
# DIGSA = experiment: Pre-emergence herbicidal action against DIGSA; assay type: in vivo, Digitaria sanguinalis
# Method in brief: as §1
# VERPE [15] = experiment: Post-emergence herbicidal action against VERPE; assay type: in vivo, Veronica persica; conditions: 20 g/ha
# Method in brief: as §2
# ALOMY [16] = experiment: Pre-emergence herbicidal action against ALOMY; assay type: in vivo, Alopecurus myosuroides; conditions: Alopecurus myosuroides, 504 h; 80 g/ha, pre-emergence, scored visually after 3 weeks vs untreated controls (100% = plants have died, 0% = like control plants)
# Method in brief: as §1
# ALOMY [17] = experiment: Post-emergence herbicidal action against ALOMY; assay type: in vivo, Alopecurus myosuroides; conditions: Alopecurus myosuroides, 504 h, dosage 20 g/ha, visual assessment about 3 weeks after treatment vs untreated controls
# Method in brief: as §2
# SETVI [18] = experiment: Post-emergence herbicidal action against SETVI; assay type: in vivo, Setaria viridis; conditions: Setaria viridis, 504 h
# Method in brief: as §2
# [19] = 80 g/ha, scored visually after 3 weeks vs untreated controls (100% = plants have died, 0% = like control plants)
# [20] = 20 g/ha, scored visually after 3 weeks vs untreated controls, 100% = plants have died, 0% = like control plants
structure (smiles),measurement,setting,value
CCn1nnnc1NC(=O)c1ccc(C(F)F)c(C(=O)NCC2CC2)c1SC [Example 2-90],Pre-emergence action against ABUTH (herbicidal activity),ABUTH [1]; [19],100%
same,Pre-emergence action against ABUTH (herbicidal activity in percent),"ABUTH [1]; dosage 20 g/ha, scored visually after 3 weeks vs untreated controls, 100% = plants have died, 0% = like control plants",100%
same,Pre-emergence action against AMARE in %,AMARE [2]; [20],100%
same,Pre-emergence action against AMARE in %,AMARE [2]; [19],100%
same,Pre-emergence action against AVEFA,"AVEFA [3]; 20 g/ha, scored visually after 3 weeks, 100% = plants have died, 0% = like control plants",80%
same,Pre-emergence action against AVEFA in %,"AVEFA [3]; 80 g/ha, pre-emergence",90%
same,Pre-emergence action against ECHCG in %,ECHCG [4]; 20 g/ha,90%
same,Pre-emergence action against ECHCG in %,ECHCG [4]; 80 g/ha,100%
same,Pre-emergence action against MATIN in %,MATIN [5]; dosage 20 g/ha,100%
same,Pre-emergence action against MATIN in %,MATIN [5]; dosage 80 g/ha,100%
same,Pre-emergence action against SETVI in %,SETVI [6],100%
same,Pre-emergence action against VERPE in %,VERPE [7],90%
same,Pre-emergence action against VIOTR in %,VIOTR [8]; dosage 20 g/ha,80%
same,Pre-emergence action against VIOTR in %,VIOTR [8]; dosage 80 g/ha,100%
same,Post-emergence action against ABUTH in %,ABUTH [9],90%
same,Post-emergence action at 20 g/ha against AMARE in %,AMARE [10],100%
same,Post-emergence action at 20 g/ha against AVEFA in %,AVEFA [11],80%
same,Post-emergence action against ECHCG in %,ECHCG [12],100%
same,Post-emergence action against MATIN in %,MATIN [13],90%
same,Post-emergence action against VIOTR in %,VIOTR [14]; 5 g/ha,100%
same,Post-emergence action against VIOTR in %,VIOTR [14]; 20 g/ha,100%
CCn1nnnc1NC(=O)c1ccc(S(C)(=O)=O)c(C(=O)NC)c1Cl [Example 2-123],Pre-emergence action against ABUTH (herbicidal activity),ABUTH [1]; [19],100%
same,Pre-emergence action against AMARE in %,AMARE [2]; [20],80%
same,Pre-emergence action against AMARE in %,AMARE [2]; [19],100%
same,Pre-emergence action against MATIN in %,MATIN [5]; dosage 20 g/ha,80%
same,Pre-emergence action against MATIN in %,MATIN [5]; dosage 80 g/ha,100%
same,Pre-emergence action against POLCO in %,POLCO,80%
same,Pre-emergence action against STEME in %,STEME,80%
same,Pre-emergence action against VIOTR in %,VIOTR [8]; dosage 80 g/ha,80%
same,Pre-emergence action against DIGSA in %,DIGSA; dosage 20 g/ha,80%
same,Pre-emergence action against DIGSA in %,DIGSA; dosage 80 g/ha,90%
same,Post-emergence action at 20 g/ha against AMARE in %,AMARE [10],80%
same,Post-emergence action against VERPE in %,VERPE [15],80%
CCn1nnnc1NC(=O)c1ccc(Cl)c(C(=O)NC2CC2)c1Br [Example 2-349],pest or weed control at 80 g/ha,"ABUTH [1]; Abutilon theophrasti, 504 h, 80 g/ha, scored visually after 3 weeks vs untreated controls (100% = plants have died, 0% = like control plants)",100%
same,pest or weed control at 80 g/ha,ALOMY [16],100%
same,pest or weed control at 20 g/ha,"AMARE [2]; Amaranthus retroflexus, 504 h, 20 g/ha, scored visually after 3 weeks vs untreated controls, 100% = plants have died, 0% = like control plants",100%
same,pest or weed control at 80 g/ha,"AMARE [2]; Amaranthus retroflexus, 504 h, 80 g/ha, scored visually after 3 weeks vs untreated controls, 100% = plants have died, 0% = like control plants",100%
same,pest or weed control at 80 g/ha,"AVEFA [3]; Avena fatua, 504 h, 80 g/ha, pre-emergence",100%
same,pest or weed control at 20 g/ha,"AVEFA [3]; Avena fatua, pre-emergence, 504 h, 20 g/ha, scored visually after 3 weeks, 100% = plants have died, 0% = like control plants",90%
same,pest or weed control at 80 g/ha,"ECHCG [4]; Echinochloa crus-galli, 504 h, 80 g/ha",90%
same,pest or weed control at 20 g/ha,"MATIN [5]; Tripleurospermum inodorum, 504 h, dosage 20 g/ha",90%
same,pest or weed control at 80 g/ha,"MATIN [5]; Tripleurospermum inodorum, 504 h, dosage 80 g/ha",100%
same,pest or weed control at 80 g/ha,"SETVI [6]; Setaria viridis, 504 h",100%
same,pest or weed control at 80 g/ha,"VERPE [7]; Veronica persica, 504 h",80%
same,pest or weed control at 20 g/ha,"VIOTR [8]; Viola tricolor, 504 h, dosage 20 g/ha",90%
same,pest or weed control at 80 g/ha,"VIOTR [8]; Viola tricolor, 504 h, dosage 80 g/ha",100%
same,pest or weed control at 20 g/ha,"ABUTH [9]; Abutilon theophrasti, 504 h",80%
same,pest or weed control at 20 g/ha,ALOMY [17],80%
same,pest or weed control at 20 g/ha,"AMARE [10]; Amaranthus retroflexus, 504 h",100%
same,pest or weed control at 20 g/ha,"AVEFA [11]; Avena fatua, 504 h",90%
same,pest or weed control at 5 g/ha,SETVI [18]; dosage 5 g/ha,90%
same,pest or weed control at 20 g/ha,SETVI [18]; dosage 20 g/ha,100%
same,pest or weed control at 20 g/ha,"VIOTR [14]; Viola tricolor, 504 h, 20 g/ha",80%
